These results are taken from ChEMBL document CHEMBL3046354, “Design, synthesis, and insecticidal activities of novel analogues of neonicotinoids: replacement of nitromethylene with nitroconjugated system” (2009).

Holding throughout (format): functional
For assay [1], the system named is Aphis craccivora. The assay is described as follows: Insecticidal activity against Aphis craccivora (cowpea aphid) infested horsebean plant leaves assessed as insect mortality at 500 mg/L measured 24 hr post compound treatment by leaf-dip method.
The subject of assay [2] is Aphis craccivora. The assay is described as follows: Insecticidal activity against Aphis craccivora (cowpea aphid) infested horsebean plant leaves assessed as insect mortality measured 24 hr post compound treatment by leaf-dip method.
Assay [3] deals with Mythimna separata. The assay is described as follows: Insecticidal activity against Mythimna separata (Oriental armyworm) second-instar larvae infested on compound pre-treated corn leaves assessed as insect mortality at 500 mg/L measured 48 hr post compound treatment by leaf-dip method.
The test system of assay [4] is Mythimna separata. The experiment in a line: Insecticidal activity against Mythimna separata(Oriental armyworm) second-instar larvae infested on compound pre-treated corn leaves assessed as insect mortality measured 48 hr post compound treatment by leaf-dip method.
Assay [5] relates to Laodelphax striatellus. The assay is described as follows: Potency index, ratio of LC50 for imidacloprid to LC50 for test compound against Laodelphax striatella (small brown planthopper) grown on booting stage rice plant stems assessed as insect mortality measured 48 hr post compound treatment by leaf-dip method.
In assay [6] the test system is Nephotettix cincticeps. The experiment in a line: Potency index, ratio of LC50 for imidacloprid to LC50 for test compound against Nephotettix cincticeps (green rice leafhopper) grown on booting stage rice plant stems assessed as insect mortality measured 48 hr post compound treatment by leaf-dip method.
Assay [7] deals with Nephotettix cincticeps. The experiment in a line: Insecticidal activity against Nephotettix cincticeps (green rice leafhopper) grown on booting stage rice plant stems assessed as insect mortality measured 48 hr post compound treatment by leaf-dip method.
Assay [8] deals with Laodelphax striatellus. The assay is described as follows: Insecticidal activity against Laodelphax striatella (small brown planthopper) grown on booting stage rice plant stems assessed as insect mortality measured 48 hr post compound treatment by leaf-dip method.

Regarding `O=[N+]([O-])/C(=C\c1cccs1)C1=NCCCN1Cc1ccc(Cl)nc1`, the mortality at 500 µg/mL came to 100% with Aphis craccivora [1] and 73.3% in the assay with Mythimna separata [3]. The LC50 in the assay on Aphis craccivora [2] amounted to 20.5 µM.
`Cc1ccc(/C=C(/C2=NCCCN2Cc2ccc(Cl)nc2)[N+](=O)[O-])o1`: the figures for the mortality at 500 µg/mL in the assay on Aphis craccivora [1] and in the assay with Mythimna separata [3] were 100% and 33.3%, respectively. In the assay with Aphis craccivora [2], the LC50 was 698 µM.
The like results for `O=[N+]([O-])/C(=C\c1ccc(Cl)o1)C1=NCCCN1Cc1ccc(Cl)nc1` were, in that order, 100%, 96.7% and 60.9 µM.
The corresponding values for `Cc1ccc(/C=C(/C2=NCCCN2Cc2ccc(Cl)nc2)[N+](=O)[O-])s1` are 100%, 63.3% and 24.6 µM.
`O=[N+]([O-])/C(=C\c1ccco1)C1=NCCN1Cc1ccccc1`: the mortality at 500 µg/mL was 0% in the assay with Aphis craccivora [1] and 46.6% in the assay on Mythimna separata [3].
Take `O=[N+]([O-])/C(=C\c1ccco1)C1=NCCN1Cc1ccc(Cl)cc1`: the mortality at 500 µg/mL with Aphis craccivora [1] is 98%; in the assay on Mythimna separata [3] it was 67.2%. Also, in the assay on Aphis craccivora [2], the LC50 was found to be 234 µM.
`O=[N+]([O-])/C(=C\c1ccco1)C1=NCCN1Cc1cnc(Cl)s1`: the mortality at 500 µg/mL in the assay with Aphis craccivora [1] and with Mythimna separata [3] was 100% each time. In addition, the values for the LC50 in the assay with Aphis craccivora [2] and in the assay with Mythimna separata [4] were 3.5 µM and 107 µM, respectively.
Take `Cl.O=[N+]([O-])/C(=C\c1ccco1)C1=NCCN1Cc1ccc(Cl)nc1`: the mortality at 500 µg/mL with Aphis craccivora [1] and in the assay on Mythimna separata [3] was 100% each time. Also, the figures for the RatioLC50 in the assay with Laodelphax striatellus [5] and in the assay on Nephotettix cincticeps [6] were 6.9 and 16, respectively. In addition, the LC50 in the assay on Aphis craccivora [2] stood at 3.72 µM; in the assay with Nephotettix cincticeps [7], 1.3 µM; with Mythimna separata [4] it was 24.7 µM; with Laodelphax striatellus [8], 7.23 µM.
As for `Cc1ccc(/C=C(/C2=NCCN2Cc2ccc(Cl)nc2)[N+](=O)[O-])o1`, the mortality at 500 µg/mL in the assay on Aphis craccivora [1] and in the assay on Mythimna separata [3] was 100% throughout. The values for the LC50 in the assay on Aphis craccivora [2], in the assay on Nephotettix cincticeps [7] and in the assay on Mythimna separata [4] were 6.34 µM, 4.05 µM and 53.1 µM, respectively.
For `CCc1ccc(/C=C(/C2=NCCN2Cc2ccc(Cl)nc2)[N+](=O)[O-])o1`, the mortality at 500 µg/mL in the assay on Aphis craccivora [1] and in the assay with Mythimna separata [3] was 100% throughout. For the same compound, the values for the median lethal concentration (LC50) with Aphis craccivora [2] and in the assay with Mythimna separata [4] were 1.82 µM and 97.9 µM, respectively.
For `Cc1cc(/C=C(/C2=NCCN2Cc2ccc(Cl)nc2)[N+](=O)[O-])oc1C`, the figures for the mortality at 500 µg/mL with Aphis craccivora [1] and in the assay with Mythimna separata [3] were 100% and 0%, respectively. Besides, the LC50 in the assay on Aphis craccivora [2] was found to be 4.65 µM.
As for `Cl.O=[N+]([O-])/C(=C\c1ccc(CO)o1)C1=NCCN1Cc1ccc(Cl)nc1`, the mortality at 500 µg/mL in the assay on Aphis craccivora [1] and in the assay with Mythimna separata [3] was 100% throughout. For the same compound, the RatioLC50 with Nephotettix cincticeps [6] was found to be 18.8. The LC50 came to 10.6 µM with Aphis craccivora [2], 1.11 µM in the assay on Nephotettix cincticeps [7] and 33.9 µM with Mythimna separata [4].
On to `O=[N+]([O-])/C(=C\c1ccc(Cl)o1)C1=NCCN1Cc1ccc(Cl)nc1`, for which the mortality at 500 µg/mL in the assay on Aphis craccivora [1] and with Mythimna separata [3] was 100% each time. For the same compound, the LC50 is 7.54 µM with Aphis craccivora [2] and 37.6 µM in the assay with Mythimna separata [4].
For `O=[N+]([O-])/C(=C\c1ccc(Br)o1)C1=NCCN1Cc1ccc(Cl)nc1`, the mortality at 500 µg/mL in the assay on Aphis craccivora [1] and in the assay on Mythimna separata [3] was 100% in each case. In addition, the figures for the LC50 with Aphis craccivora [2], with Nephotettix cincticeps [7] and in the assay on Mythimna separata [4] were 7.3 µM, 2.54 µM and 39.7 µM, respectively.
Take `O=[N+]([O-])/C(=C\c1ccc([N+](=O)[O-])o1)C1=NCCN1Cc1ccc(Cl)nc1`: the mortality at 500 µg/mL in the assay with Aphis craccivora [1] and in the assay with Mythimna separata [3] was 100% each time. In addition, the LC50 stood at 11.1 µM in the assay with Aphis craccivora [2], 154 µM with Nephotettix cincticeps [7] and 69.5 µM in the assay with Mythimna separata [4].
Take `O=[N+]([O-])/C(=C\c1ccoc1)C1=NCCN1Cc1ccc(Cl)nc1`: the mortality at 500 µg/mL with Aphis craccivora [1] and in the assay with Mythimna separata [3] was 100% in each case. The LC50 worked out at 4.46 µM in the assay with Aphis craccivora [2] and 55.3 µM in the assay on Mythimna separata [4].
`Cl.O=[N+]([O-])/C(=C\c1cccs1)C1=NCCN1Cc1ccc(Cl)nc1`: the mortality at 500 µg/mL in the assay on Aphis craccivora [1] and in the assay on Mythimna separata [3] was 100% each time. Moreover, the RatioLC50 in the assay on Laodelphax striatellus [5] was 3.6; with Nephotettix cincticeps [6], 17.1. The LC50 with Aphis craccivora [2] amounted to 4.23 µM; in the assay on Nephotettix cincticeps [7], 1.22 µM; with Mythimna separata [4], 52.9 µM; in the assay with Laodelphax striatellus [8] it was 14 µM.
In the case of `O=[N+]([O-])/C(=C\c1cc(Br)cs1)C1=NCCN1Cc1ccc(Cl)nc1`, the mortality at 500 µg/mL in the assay with Aphis craccivora [1] and in the assay on Mythimna separata [3] was 0% each time.
For the compound `Cc1ccc(/C=C(/C2=NCCN2Cc2ccc(Cl)nc2)[N+](=O)[O-])s1`, the mortality at 500 µg/mL with Aphis craccivora [1] and in the assay with Mythimna separata [3] was 100% each time. Moreover, the values for the LC50 in the assay with Aphis craccivora [2] and in the assay on Mythimna separata [4] were 3.11 µM and 29.7 µM, respectively.
On to `O=[N+]([O-])/C(=C\c1ccsc1)C1=NCCN1Cc1ccc(Cl)nc1`, for which the figures for the mortality at 500 µg/mL with Aphis craccivora [1] and in the assay on Mythimna separata [3] were 31.9% and 0%, respectively.
As to `O=[N+]([O-])/C(=C\c1ccc[nH]1)C1=NCCN1Cc1ccc(Cl)nc1`, the mortality at 500 µg/mL in the assay on Aphis craccivora [1] and in the assay with Mythimna separata [3] was 100% throughout. In addition, the values for the LC50 in the assay with Aphis craccivora [2] and in the assay on Mythimna separata [4] were 11.2 µM and 39.7 µM, respectively.
On to `O=[N+]([O-])/C(=C\c1ccco1)C1=NCCCN1Cc1ccc(Cl)nc1`, for which the mortality at 500 µg/mL with Aphis craccivora [1] came out at 100%; with Mythimna separata [3], 16.7%. In the assay with Aphis craccivora [2], the LC50 came to 76.4 µM.
For the compound `O=[N+]([O-])/N=C1\NCCN1Cc1ccc(Cl)nc1` [IMIDACLOPRID], the mortality at 500 µg/mL in the assay on Aphis craccivora [1] was 100%. Also, the results for the LC50 in the assay on Aphis craccivora [2], in the assay with Nephotettix cincticeps [7] and in the assay with Laodelphax striatellus [8] were 35 µM, 20.9 µM and 49.8 µM, respectively.
